Consider 16 compounds from US20240109918A1, “HETEROCYCLIC COMPOUNDS AND USES THEREOF” (Kumquat Biosciences Inc., priority 2022, published 2024).

Each structure is given as a SMILES string.

Test [1] has as its target T1, KRASwt (Homo sapiens, UniProt P01116).
T1 construct: made in house; host or cells: E. coli BL21 (DE3)
The test can be described thus: Bio-Biochem-PPI-HTRF Ras-SOS1 interaction assay (KRAS wt). It is filed as biochemical. The note with it: 5 nM. The procedure, abridged:
(§1)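 Compounds tested in duplicate (10 μM to 0.01 μM) for disruption of His-hSOS1 binding to GST-tagged wild-type or G12D K-Ras in HEPES pH 7.4 buffer. TR-FRET read (Eu donor, XL665 acceptor) after about 10 min or longer; IC50 derived from the 665/620 nm emission ratio.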
For orientation: Time-resolved FRET reads energy transfer from a long-lived donor to a nearby acceptor.

The target in test [2] is T2, KRASG12D (Homo sapiens, UniProt P01116, G12D).
T2 construct: made in house; host or cells: E. coli BL21 (DE3)
The test can be described thus: Bio-Biochem-PPI-HTRF Ras-SOS1 interaction assay (KRAS G12D). The class given is biochemical. The note with it: 5 nM. Summed up:
as §1

T2 sequence (P01116 1-188 isoform P01116-2 G12D): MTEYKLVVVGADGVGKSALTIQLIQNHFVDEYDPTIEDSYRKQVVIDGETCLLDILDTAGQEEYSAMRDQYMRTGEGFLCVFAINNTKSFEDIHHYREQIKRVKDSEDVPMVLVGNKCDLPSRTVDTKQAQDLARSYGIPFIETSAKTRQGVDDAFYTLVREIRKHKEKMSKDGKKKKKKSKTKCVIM
T1 sequence (P01116 1-188 isoform P01116-2): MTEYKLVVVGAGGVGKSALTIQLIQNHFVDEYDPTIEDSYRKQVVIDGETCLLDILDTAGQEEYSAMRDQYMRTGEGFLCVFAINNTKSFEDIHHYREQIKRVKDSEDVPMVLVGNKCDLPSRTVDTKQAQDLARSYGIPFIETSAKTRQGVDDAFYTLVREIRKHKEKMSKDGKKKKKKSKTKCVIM

In general, IC50 refers to the midpoint of a concentration-inhibition curve. A higher IC50 goes with lower potency. Take `N#Cc1c(N)sc2c(F)ccc(-c3c(Cl)cc4c(N5CCCCC6(CN(C(=O)[C@H]7C[C@@H]7F)C6)C5)nc(OC[C@@]56CCCN5C[C@H](F)C6)nc4c3F)c12` [compound 284, 2-amino-4-(6-chloro-8-fluoro-4-(2-((1R,2S)-2-fluorocyclopropane-1-carbonyl)-2,6-diazaspiro[3.6]decan-6-yl)-2-(((2R,7aS)-2-fluorotetrahydro-1H-pyrrolizin-7a(5H)-yl)methoxy)quinazolin-7-yl)-7-fluorobenzo[b]thiophene-3-carbonitrile]: the IC50 in test [1] and in test [2] was < 5 µM in each case.
Consider `C[C@H]1CN(C(=O)N2CC3(CCCCN(c4nc(OC[C@@]56CCCN5C[C@H](F)C6)nc5c(F)c(-c6ccc(F)c7sc(N)c(C#N)c67)c(Cl)cc45)C3)C2)CCO1` [compound 285, 2-amino-4-(6-chloro-8-fluoro-2-(((2R,7aS)-2-fluorotetrahydro-1H-pyrrolizin-7a(5H)-yl)methoxy)-4-(2-((S)-2-methylmorpholine-4-carbonyl)-2,6-diazaspiro[3.6]decan-6-yl)quinazolin-7-yl)-7-fluorobenzo[b]thiophene-3-carbonitrile], for which the IC50 in test [1] and in test [2] was < 5 µM in each case.
For the compound `N#Cc1c(N)sc2c(F)ccc(-c3c(Cl)cc4c(N5CCCCC6(CN(C(=O)C7CC78CC8)C6)C5)nc(OC[C@@]56CCCN5C[C@H](F)C6)nc4c3F)c12` (stereo partly drawn) [compound 286, 2-amino-4-(6-chloro-8-fluoro-2-(((2R,7aS)-2-fluorotetrahydro-1H-pyrrolizin-7a(5H)-yl)methoxy)-4-(2-(spiro[2.2]pentane-1-carbonyl)-2,6-diazaspiro[3.6]decan-6-yl)quinazolin-7-yl)-7-fluorobenzo[b]thiophene-3-carbonitrile], the IC50 in test [1] and in test [2] was < 5 µM in each case.
As to `N#Cc1c(N)sc2c(F)ccc(-c3c(Cl)cc4c(N5CCCCC6(CN(C(=O)C7CC7C(F)F)C6)C5)nc(OC[C@@]56CCCN5C[C@H](F)C6)nc4c3F)c12` (stereo partly drawn) [compound 287, 2-amino-4-(6-chloro-4-(2-(2-(difluoromethyl)cyclopropane-1-carbonyl)-2,6-diazaspiro[3.6]decan-6-yl)-8-fluoro-2-(((2R,7aS)-2-fluorotetrahydro-1H-pyrrolizin-7a(5H)-yl)methoxy)quinazolin-7-yl)-7-fluorobenzo[b]thiophene-3-carbonitrile], the IC50 in test [1] and in test [2] was < 5 µM each time.
For the compound `CC1CCCC2(CN(C(=O)C3CC3(F)F)C2)CN1c1nc(OC[C@@]23CCCN2C[C@H](F)C3)nc2c(F)c(-c3ccc(F)c4sc(N)c(C#N)c34)c(Cl)cc12` (stereo partly drawn) [compound 288, 2-amino-4-(6-chloro-4-(2-(2,2-difluorocyclopropane-1-carbonyl)-7-methyl-2,6-diazaspiro[3.6]decan-6-yl)-8-fluoro-2-(((2R,7aS)-2-fluorotetrahydro-1H-pyrrolizin-7a(5H)-yl)methoxy)quinazolin-7-yl)-7-fluorobenzo[b]thiophene-3-carbonitrile], the IC50 in test [1] and in test [2] was < 5 µM each time.
For `N#Cc1c(N)sc2c(F)ccc(-c3c(Cl)cc4c(N5CCCCC6(CN(C(=O)NC7(C(F)(F)F)CC7)C6)C5)nc(OC[C@@]56CCCN5C[C@H](F)C6)nc4c3F)c12` [compound 289, 6-(7-(2-amino-3-cyano-7-fluorobenzo[b]thiophen-4-yl)-6-chloro-8-fluoro-2-(((2R,7aS)-2-fluorotetrahydro-1H-pyrrolizin-7a(5H)-yl)methoxy)quinazolin-4-yl)-N-(1-(trifluoromethyl)cyclopropyl)-2,6-diazaspiro[3.6]decane-2-carboxamide], the IC50 in test [1] and in test [2] was < 5 µM throughout.
Regarding `N#Cc1c(N)sc2c(F)ccc(-c3c(Cl)cc4c(N5CCC(F)(F)CC6(CN(C(=O)[C@@H]7CC7(F)F)C6)C5)nc(OC[C@@]56CCCN5C[C@H](F)C6)nc4c3F)c12` [compound 290, 2-amino-4-(6-chloro-4-(2-((S)-2,2-difluorocyclopropane-1-carbonyl)-9,9-difluoro-2,6-diazaspiro [3.6]decan-6-yl)-8-fluoro-2-(((2R,7aS)-2-fluorotetrahydro-1H-pyrrolizin-7a(5H)-yl)methoxy)quinazolin-7-yl)-7-fluorobenzo[b]thiophene-3-carbonitrile], the IC50 in test [1] and in test [2] was < 5 µM in each case.
Regarding `N#Cc1c(N)sc2c(F)ccc(-c3c(Cl)cc4c(N5CCCCC6(CN(C(=O)N7CCC(F)(F)C7)C6)C5)nc(OC[C@@]56CCCN5C[C@H](F)C6)nc4c3F)c12` [compound 292, 2-amino-4-(6-chloro-4-(2-(3,3-difluoropyrrolidine-1-carbonyl)-2,6-diazaspiro[3.6]decan-6-yl)-8-fluoro-2-(((2R,7aS)-2-fluorotetrahydro-1H-pyrrolizin-7a(5H)-yl)methoxy)quinazolin-7-yl)-7-fluorobenzo[b]thiophene-3-carbonitrile], the IC50 in test [1] and in test [2] was < 5 µM each time.
With `N#Cc1c(N)sc2c(F)ccc(-c3c(Cl)cc4c(N5CCCCC6(CN(C(=O)C7COC7)C6)C5)nc(OC[C@@]56CCCN5C[C@H](F)C6)nc4c3F)c12` [compound 293, 2-amino-4-(6-chloro-8-fluoro-2-(((2R,7aS)-2-fluorotetrahydro-1H-pyrrolizin-7a(5H)-yl)methoxy)-4-(2-(oxetane-3-carbonyl)-2,6-diazaspiro[3.6]decan-6-yl)quinazolin-7-yl)-7-fluorobenzo[b]thiophene-3-carbonitrile], the IC50 in test [1] and in test [2] was < 5 µM in each case.
Turning to `N#Cc1c(N)sc2c(F)ccc(-c3c(Cl)cc4c(N5CCCCC6(CN(C(=O)C7CC(C#N)C7)C6)C5)nc(OC[C@@]56CCCN5C[C@H](F)C6)nc4c3F)c12` (stereo partly drawn) [compound 294, 2-amino-4-(6-chloro-4-(2-(3-cyanocyclobutane-1-carbonyl)-2,6-diazaspiro[3.6]decan-6-yl)-8-fluoro-2-(((2R,7aS)-2-fluorotetrahydro-1H-pyrrolizin-7a(5H)-yl)methoxy)quinazolin-7-yl)-7-fluorobenzo[b]thiophene-3-carbonitrile], the IC50 in test [1] and in test [2] was < 5 µM in each case.
Turning to `N#Cc1c(N)sc2c(F)ccc(-c3c(Cl)cc4c(N5CCCCC6(CN(C(=O)[C@@H]7CCCN7)C6)C5)nc(OC[C@@]56CCCN5C[C@H](F)C6)nc4c3F)c12` [compound 296, 4-(4-(2-(L-prolyl)-2,6-diazaspiro[3.6]decan-6-yl)-6-chloro-8-fluoro-2-(((2R,7aS)-2-fluorotetrahydro-1H-pyrrolizin-7a(5H)-yl)methoxy)quinazolin-7-yl)-2-amino-7-fluorobenzo[b]thiophene-3-carbonitrile], the IC50 in test [1] and in test [2] was < 5 µM throughout.
Turning to `N#Cc1c(N)sc2c(F)ccc(-c3c(Cl)cc4c(N5CCCCC6(CN(C(=O)N7CC(F)(F)C7)C6)C5)nc(OC[C@@]56CCCN5C[C@H](F)C6)nc4c3F)c12` [compound 298, 2-amino-4-(6-chloro-4-(2-(3,3-difluoroazetidine-1-carbonyl)-2,6-diazaspiro[3.6]decan-6-yl)-8-fluoro-2-(((2R,7aS)-2-fluorotetrahydro-1H-pyrrolizin-7a(5H)-yl)methoxy)quinazolin-7-yl)-7-fluorobenzo[b]thiophene-3-carbonitrile], the IC50 in test [1] and in test [2] was < 5 µM in each case.
For `N#Cc1c(N)sc2c(F)ccc(-c3c(Cl)cc4c(N5CCCCC6(CN(C(=O)C7CCOCC7)C6)C5)nc(OC[C@@]56CCCN5C[C@H](F)C6)nc4c3F)c12` [compound 300, 2-amino-4-(6-chloro-8-fluoro-2-(((2R,7aS)-2-fluorotetrahydro-1H-pyrrolizin-7a(5H)-yl)methoxy)-4-(2-(tetrahydro-2H-pyran-4-carbonyl)-2,6-diazaspiro[3.6]decan-6-yl)quinazolin-7-yl)-7-fluorobenzo[b]thiophene-3-carbonitrile], the IC50 in test [1] and in test [2] was < 5 µM throughout.
As to `C#Cc1c(F)ccc2cc(O)cc(-c3ncc4c(N5CCOCC6(CN(C(=O)[C@@H]7CC7(F)F)C6)C5)nc(OC[C@@]56CCCN5C[C@H](F)C6)nc4c3F)c12` [compound 301, ((S)-2,2-difluorocyclopropyl) (9-(7-(8-ethynyl-7-fluoro-3-hydroxynaphthalen-1-yl)-8-fluoro-2-(((2R,7aS)-2-fluorotetrahydro-1H-pyrrolizin-7a(5H)-yl)methoxy)pyrido[4,3-d]pyrimidin-4-yl)-6-oxa-2,9-diazaspiro[3.6]decan-2-yl)methanone], the IC50 in test [1] and in test [2] was < 5 µM in each case.
For `N#Cc1c(N)sc2c(F)ccc(-c3c(Cl)cc4c(N5CCCCC6(CN(C(=O)COC(F)(F)C(F)(F)F)C6)C5)nc(OC[C@@]56CCCN5C[C@H](F)C6)nc4c3F)c12` [compound 302, 2-amino-4-(6-chloro-8-fluoro-2-(((2R,7aS)-2-fluorotetrahydro-1H-pyrrolizin-7a(5H)-yl)methoxy)-4-(2-(2-(perfluoroethoxy)acetyl)-2,6-diazaspiro[3.6]decan-6-yl)quinazolin-7-yl)-7-fluorobenzo[b]thiophene-3-carbonitrile], the IC50 in test [1] and in test [2] was < 5 µM each time.
For the compound `N#Cc1c(N)sc2c(F)ccc(-c3c(Cl)cc4c(N5CCCCC6(CN(C(=O)C7CC8CCC7O8)C6)C5)nc(OC[C@@]56CCCN5C[C@H](F)C6)nc4c3F)c12` (stereo partly drawn) [compound 303, 4-(4-(2-(7-oxabicyclo[2.2.1]heptane-2-carbonyl)-2,6-diazaspiro[3.6]decan-6-yl)-6-chloro-8-fluoro-2-(((2R,7aS)-2-fluorotetrahydro-1H-pyrrolizin-7a(5H)-yl)methoxy)quinazolin-7-yl)-2-amino-7-fluorobenzo[b]thiophene-3-carbonitrile], the IC50 in test [1] and in test [2] was < 5 µM in each case.
